# Several values for one entry are separate records, joined by “and”; a condition that tells them apart may be missing. Equal entries are not always repeated.
# Assays:
# Assay in all cases: radiometric filter-binding kinase assay, Kinase HotSpot
# Conditions in all cases: compound 0.5 µM; ATP 10 µM
# CDC42BPA (human) = CDC42BPA (human) (UniProt Q5VT25)
# PRKG2 (human) = PRKG2 (human) (UniProt Q13237)
# MAP4K4 (human) = MAP4K4 (human) (UniProt O95819)
# CSNK1A1 (human) = CSNK1A1 (human) (UniProt P48729)
# NEK1 (human) = NEK1 (human) (UniProt Q96PY6)
# Chain of NEK1 (human) (Q96PY6 whole entry, looked up): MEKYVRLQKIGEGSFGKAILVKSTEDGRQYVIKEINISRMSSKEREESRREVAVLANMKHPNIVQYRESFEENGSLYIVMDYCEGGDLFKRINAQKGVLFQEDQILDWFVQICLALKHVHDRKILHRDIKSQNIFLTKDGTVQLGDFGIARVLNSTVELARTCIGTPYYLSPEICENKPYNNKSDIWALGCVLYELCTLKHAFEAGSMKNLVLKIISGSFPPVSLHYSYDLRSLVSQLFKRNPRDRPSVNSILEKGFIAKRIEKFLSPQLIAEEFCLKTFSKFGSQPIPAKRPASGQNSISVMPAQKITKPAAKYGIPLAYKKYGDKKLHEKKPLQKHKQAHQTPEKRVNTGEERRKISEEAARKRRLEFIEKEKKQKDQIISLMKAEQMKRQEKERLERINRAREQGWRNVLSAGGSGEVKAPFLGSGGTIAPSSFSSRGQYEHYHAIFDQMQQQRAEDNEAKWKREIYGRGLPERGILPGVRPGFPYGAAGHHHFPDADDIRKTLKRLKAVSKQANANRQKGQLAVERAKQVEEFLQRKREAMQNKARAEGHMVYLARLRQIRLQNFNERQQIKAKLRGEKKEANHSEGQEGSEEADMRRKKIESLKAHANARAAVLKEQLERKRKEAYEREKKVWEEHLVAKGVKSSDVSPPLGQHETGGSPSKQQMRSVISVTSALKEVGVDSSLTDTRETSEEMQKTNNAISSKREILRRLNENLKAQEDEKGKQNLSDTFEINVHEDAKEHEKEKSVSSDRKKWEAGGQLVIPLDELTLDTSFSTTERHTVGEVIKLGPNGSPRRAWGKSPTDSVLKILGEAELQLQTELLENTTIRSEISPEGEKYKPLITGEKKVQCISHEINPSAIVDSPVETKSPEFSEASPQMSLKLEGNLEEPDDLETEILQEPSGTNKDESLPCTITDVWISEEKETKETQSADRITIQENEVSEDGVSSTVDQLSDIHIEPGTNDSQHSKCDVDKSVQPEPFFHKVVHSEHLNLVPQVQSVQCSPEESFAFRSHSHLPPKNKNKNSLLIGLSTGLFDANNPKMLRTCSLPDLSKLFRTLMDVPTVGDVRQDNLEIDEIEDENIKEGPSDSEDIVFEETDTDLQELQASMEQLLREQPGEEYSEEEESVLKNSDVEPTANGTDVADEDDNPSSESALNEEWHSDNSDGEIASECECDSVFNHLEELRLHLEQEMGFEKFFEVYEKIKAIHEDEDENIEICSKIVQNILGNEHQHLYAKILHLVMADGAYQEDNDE
# DYRK1A (human) = DYRK1A (human) (UniProt Q13627)
# PASK (human) = PASK (human) (UniProt Q96RG2)
# MARK4 (human) = MARK4 (human) (UniProt Q96L34)
# NTRK1 (human) = NTRK1 (human) (UniProt P04629)
# MAPK14 (human) = MAPK14 (human) (UniProt Q16539)
# Chain of MAPK14 (human) (Q16539 whole entry, looked up): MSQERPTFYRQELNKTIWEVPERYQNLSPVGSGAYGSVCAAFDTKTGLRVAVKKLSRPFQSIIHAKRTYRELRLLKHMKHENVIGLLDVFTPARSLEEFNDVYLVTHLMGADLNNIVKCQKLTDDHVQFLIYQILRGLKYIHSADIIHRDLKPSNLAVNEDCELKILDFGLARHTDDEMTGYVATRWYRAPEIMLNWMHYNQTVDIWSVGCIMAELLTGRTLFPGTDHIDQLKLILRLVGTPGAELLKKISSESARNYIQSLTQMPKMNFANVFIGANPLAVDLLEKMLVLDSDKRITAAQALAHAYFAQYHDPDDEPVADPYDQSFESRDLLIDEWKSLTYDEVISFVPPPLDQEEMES
# STK3 (human) = STK3 (human) (UniProt Q13188)
# LRRK2 (human) = LRRK2 (human) (UniProt Q5S007)
# Chain of LRRK2 (human) (Q5S007 whole entry, looked up): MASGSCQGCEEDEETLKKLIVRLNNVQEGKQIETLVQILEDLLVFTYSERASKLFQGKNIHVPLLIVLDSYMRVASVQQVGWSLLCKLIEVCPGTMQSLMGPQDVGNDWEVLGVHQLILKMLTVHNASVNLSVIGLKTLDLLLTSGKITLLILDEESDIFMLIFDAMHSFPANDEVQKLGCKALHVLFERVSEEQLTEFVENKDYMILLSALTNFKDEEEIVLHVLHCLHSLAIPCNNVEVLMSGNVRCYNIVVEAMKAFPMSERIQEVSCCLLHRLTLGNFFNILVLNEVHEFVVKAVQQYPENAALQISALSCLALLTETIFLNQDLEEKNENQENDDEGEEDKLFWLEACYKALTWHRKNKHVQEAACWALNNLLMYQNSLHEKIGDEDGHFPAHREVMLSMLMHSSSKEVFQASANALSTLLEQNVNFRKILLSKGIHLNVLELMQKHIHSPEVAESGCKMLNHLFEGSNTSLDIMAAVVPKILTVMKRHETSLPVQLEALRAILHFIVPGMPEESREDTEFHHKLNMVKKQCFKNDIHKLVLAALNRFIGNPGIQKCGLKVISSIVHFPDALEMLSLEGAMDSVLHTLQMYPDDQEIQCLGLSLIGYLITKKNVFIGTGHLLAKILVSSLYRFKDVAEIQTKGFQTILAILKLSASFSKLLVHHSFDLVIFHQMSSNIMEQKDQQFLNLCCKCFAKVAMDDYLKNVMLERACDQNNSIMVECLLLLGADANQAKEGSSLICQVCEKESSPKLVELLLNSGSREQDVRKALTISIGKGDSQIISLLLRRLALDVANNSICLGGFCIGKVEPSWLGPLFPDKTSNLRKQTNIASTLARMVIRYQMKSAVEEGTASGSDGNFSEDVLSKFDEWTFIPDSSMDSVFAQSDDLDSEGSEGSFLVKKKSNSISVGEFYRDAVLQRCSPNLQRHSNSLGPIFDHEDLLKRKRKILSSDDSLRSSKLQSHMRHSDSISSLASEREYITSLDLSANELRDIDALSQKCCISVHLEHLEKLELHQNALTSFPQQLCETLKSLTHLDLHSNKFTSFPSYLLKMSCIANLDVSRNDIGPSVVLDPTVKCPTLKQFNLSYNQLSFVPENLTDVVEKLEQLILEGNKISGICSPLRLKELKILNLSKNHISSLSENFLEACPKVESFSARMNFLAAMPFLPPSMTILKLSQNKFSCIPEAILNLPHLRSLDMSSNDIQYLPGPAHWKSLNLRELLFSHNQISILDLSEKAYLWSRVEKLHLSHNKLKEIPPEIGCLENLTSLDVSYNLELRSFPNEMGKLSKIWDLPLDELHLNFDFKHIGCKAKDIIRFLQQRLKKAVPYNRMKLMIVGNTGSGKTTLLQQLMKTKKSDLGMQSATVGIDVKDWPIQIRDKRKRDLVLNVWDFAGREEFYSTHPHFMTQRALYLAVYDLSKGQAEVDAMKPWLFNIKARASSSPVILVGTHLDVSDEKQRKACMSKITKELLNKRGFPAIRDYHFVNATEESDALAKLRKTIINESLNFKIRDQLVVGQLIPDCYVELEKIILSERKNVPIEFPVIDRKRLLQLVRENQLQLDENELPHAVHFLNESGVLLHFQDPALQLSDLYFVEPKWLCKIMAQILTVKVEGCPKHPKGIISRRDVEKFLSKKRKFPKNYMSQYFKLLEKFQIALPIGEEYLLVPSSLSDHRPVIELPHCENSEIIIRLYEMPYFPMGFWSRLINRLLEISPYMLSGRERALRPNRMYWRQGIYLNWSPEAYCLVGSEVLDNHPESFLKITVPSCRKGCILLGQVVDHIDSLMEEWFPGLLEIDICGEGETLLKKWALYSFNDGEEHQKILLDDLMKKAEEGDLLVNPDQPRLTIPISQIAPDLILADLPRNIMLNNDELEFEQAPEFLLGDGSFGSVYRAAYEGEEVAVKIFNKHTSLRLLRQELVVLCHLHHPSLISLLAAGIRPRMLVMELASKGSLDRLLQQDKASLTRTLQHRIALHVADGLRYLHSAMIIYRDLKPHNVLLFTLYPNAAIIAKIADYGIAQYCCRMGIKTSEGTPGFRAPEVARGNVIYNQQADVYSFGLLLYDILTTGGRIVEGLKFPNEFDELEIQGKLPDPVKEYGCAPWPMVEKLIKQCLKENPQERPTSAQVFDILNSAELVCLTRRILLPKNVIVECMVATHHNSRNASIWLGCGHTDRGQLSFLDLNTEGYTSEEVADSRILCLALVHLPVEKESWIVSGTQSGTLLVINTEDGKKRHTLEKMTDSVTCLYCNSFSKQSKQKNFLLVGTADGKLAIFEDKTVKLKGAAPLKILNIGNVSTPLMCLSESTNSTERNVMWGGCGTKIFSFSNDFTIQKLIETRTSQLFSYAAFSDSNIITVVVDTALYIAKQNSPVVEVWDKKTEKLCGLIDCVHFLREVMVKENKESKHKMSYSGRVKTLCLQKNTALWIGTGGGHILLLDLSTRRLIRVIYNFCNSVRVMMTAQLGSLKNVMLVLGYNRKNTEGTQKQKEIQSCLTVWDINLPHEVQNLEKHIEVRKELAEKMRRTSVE
# LYN (human) = LYN (human) (UniProt P07948)
# Chain of LYN (human) (P07948 whole entry, looked up): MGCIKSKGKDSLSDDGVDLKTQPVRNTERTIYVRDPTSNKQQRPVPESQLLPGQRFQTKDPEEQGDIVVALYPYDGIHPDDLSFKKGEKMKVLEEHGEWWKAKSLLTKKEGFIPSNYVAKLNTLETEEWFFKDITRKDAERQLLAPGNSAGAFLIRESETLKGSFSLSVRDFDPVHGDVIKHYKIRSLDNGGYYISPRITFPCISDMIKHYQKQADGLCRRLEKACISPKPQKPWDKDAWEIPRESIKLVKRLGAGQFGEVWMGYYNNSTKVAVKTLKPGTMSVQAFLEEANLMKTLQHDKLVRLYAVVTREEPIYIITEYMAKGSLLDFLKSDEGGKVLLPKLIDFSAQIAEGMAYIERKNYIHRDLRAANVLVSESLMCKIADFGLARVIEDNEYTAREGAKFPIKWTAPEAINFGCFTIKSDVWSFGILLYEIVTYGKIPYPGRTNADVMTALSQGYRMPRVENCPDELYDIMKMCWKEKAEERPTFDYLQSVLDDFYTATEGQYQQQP
# FGFR4 (human) = FGFR4 (human) (UniProt P22455)
# LTK (human) = LTK (human) (UniProt P29376)
# PKN1 (human) = PKN1 (human) (UniProt Q16512)
# EPHB3 (human) = EPHB3 (human) (UniProt P54753)
# CDK3 CCNE1 (human) = CDK3 CCNE1 (human) (UniProt Q00526+P24864)
# ACVRL1 (human) = ACVRL1 (human) (UniProt P37023)
# BLK (human) = BLK (human) (UniProt P51451)
# MAP3K11 (human) = MAP3K11 (human) (UniProt Q16584)
# ALK (human) = ALK (human) (UniProt Q9UM73)
# GSK3B (human) = GSK3B (human) (UniProt P49841)
# Chain of GSK3B (human) (P49841 whole entry, looked up): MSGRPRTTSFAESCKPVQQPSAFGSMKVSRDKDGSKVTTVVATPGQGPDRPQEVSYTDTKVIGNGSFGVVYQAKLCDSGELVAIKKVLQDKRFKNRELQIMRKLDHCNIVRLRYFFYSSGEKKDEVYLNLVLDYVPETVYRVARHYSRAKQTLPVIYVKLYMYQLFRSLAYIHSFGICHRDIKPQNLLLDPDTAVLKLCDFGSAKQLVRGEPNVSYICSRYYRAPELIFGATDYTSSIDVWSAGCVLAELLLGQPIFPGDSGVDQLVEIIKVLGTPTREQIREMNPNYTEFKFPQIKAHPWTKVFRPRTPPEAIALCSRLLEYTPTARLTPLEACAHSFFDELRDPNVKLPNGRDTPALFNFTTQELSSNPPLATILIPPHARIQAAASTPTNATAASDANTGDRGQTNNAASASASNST
# BRSK1 (human) = BRSK1 (human) (UniProt Q8TDC3)
# BRSK2 (human) = BRSK2 (human) (UniProt Q8IWQ3)
# EPHA1 (human) = EPHA1 (human) (UniProt P21709)
# PDPK1 (human) = PDPK1 (human) (UniProt O15530)
# PIM1 (human) = PIM1 (human) (UniProt P11309)
# FYN (human) = FYN (human) (UniProt P06241)
# PDGFRA (human) = PDGFRA (human) (UniProt P16234)
# RPS6KB1 (human) = RPS6KB1 (human) (UniProt P23443)
# EPHB2 (human) = EPHB2 (human) (UniProt P29323)
# WNK3 (human) = WNK3 (human) (UniProt Q9BYP7)
# PRKD3 (human) = PRKD3 (human) (UniProt O94806)
# MAP3K10 (human) = MAP3K10 (human) (UniProt Q02779)
# MAP2K2 (human) = MAP2K2 (human) (UniProt P36507)
# MAPKAPK5 (human) = MAPKAPK5 (human) (UniProt Q8IW41)
# AKT1 (human) = AKT1 (human) (UniProt P31749)
# CDK6 CCND3 (human) = CDK6 CCND3 (human) (UniProt P30281+Q00534)
# IRAK1 (human) = IRAK1 (human) (UniProt P51617)
# RPS6KA5 KD2 (human) = RPS6KA5 KD2 (human) (UniProt O75582)
# DDR2 (human) = DDR2 (human) (UniProt Q16832)
smiles,measurement,setting,value
CC(=O)O/N=C1\C(=C2\C(=O)Nc3cc(Br)ccc32)Nc2ccccc21,residual activity,CDC42BPA (human),85.8%
same,residual activity,PRKG2 (human),91.4%
same,residual activity,MAP4K4 (human),30.2%
same,residual activity,CSNK1A1 (human),68.5%
same,residual activity,NEK1 (human),94.7%
same,residual activity,DYRK1A (human),111%
same,residual activity,PASK (human),86.2%
same,residual activity,MARK4 (human),77.6%
same,residual activity,NTRK1 (human),54.7%
same,residual activity,MAPK14 (human),99.2%
same,residual activity,STK3 (human),39.5%
same,residual activity,LRRK2 (human),87.6%
same,residual activity,LYN (human),28.1% and 52.4%
same,residual activity,FGFR4 (human),82.6%
same,residual activity,LTK (human),83.3%
same,residual activity,PKN1 (human),96.1%
same,residual activity,EPHB3 (human),94.2%
same,residual activity,CDK3 CCNE1 (human),36.3%
same,residual activity,ACVRL1 (human),107%
same,residual activity,BLK (human),25.6%
same,residual activity,MAP3K11 (human),42.5%
same,residual activity,ALK (human),86.7%
same,residual activity,GSK3B (human),14.3%
same,residual activity,BRSK1 (human),43.5%
same,residual activity,BRSK2 (human),43.4%
same,residual activity,EPHA1 (human),83.2%
same,residual activity,PDPK1 (human),88.2%
same,residual activity,PIM1 (human),79.8%
same,residual activity,FYN (human),20.9%
same,residual activity,PDGFRA (human),82.9%
same,residual activity,RPS6KB1 (human),95.4%
same,residual activity,EPHB2 (human),81.4%
same,residual activity,WNK3 (human),93%
same,residual activity,PRKD3 (human),84.9%
same,residual activity,MAP3K10 (human),92.3%
same,residual activity,MAP2K2 (human),83.1%
same,residual activity,MAPKAPK5 (human),94.9%
same,residual activity,AKT1 (human),99.6%
same,residual activity,CDK6 CCND3 (human),40.9%
same,residual activity,IRAK1 (human),67.4%
same,residual activity,RPS6KA5 KD2 (human),83.9%
same,residual activity,DDR2 (human),89.8%
